Series [1] relates to intraocular pressure of rabbit eyes. Put plainly: Normotensive intraocular pressure in rabbit eyes after topical instillation (pneumatonometer). Type of series: in vivo, New Zealand rabbits. The procedure:
Male New Zealand rabbits are used to evaluate drug effects on normotensive IOP measurements. The rabbits are carefully handled so as to minimize excitement. They should be picked up by the nape of the neck, with their hindlegs supported by the other hand. After removing the rabbit from its cage, approximately 25 ul of dilute Ophthetic® (0.05%) topical anesthesia is administered to each eye. An initial IOP determination is made in both eyes. Rabbits with 3 mmHg or greater difference in IOP between right and left eyes are replaced at this time.
Immediately following the time zero (T=0) reading in both eyes, one eye of each experimental rabbit is instilled with an ophthalmic formulation of 0.1% (w/w) brimonidine tartrate onto the cornea of the randomly selected test eye. […] The other eye is given the vehicle containing no drug. The ophthalmic formulations comprise 50 ppm Purite® (stabilized chlorine dioxide), 0.5% carboxymethylcellulose, 0.6% (w/w) borate buffer (pH 7.7) and small amounts of salts (NaCl, KCl, CaCl2, MgCl2). Intraocular pressure of both treated (ipsalateral)and untreated (contralateral) eyes is measured at the indicated time intervals for seven hours. Pressure readings utilize a Model 30 Classic™ Pneumatonometer as the measuring and recording instrument. It measures intraocular pressure (IOP) non-invasively through applanation tonometry.

The test system of series [2] is sulprostone-induced allodynia in mice. Put plainly: Sulprostone-induced allodynia mouse model, paint brush pain score. Type of series: in vivo. The method, then:
Alternatively, allodynia can be induced in mice through intrathecal treatment of the animals with 200 ng sulprostone (prostaglandin E2 receptor agonist) in 50% DMSO and in a volume of 5 μl. In this model, the pain response to stroking the flank with a paint brush is scored 8 times over a 35 minute period starting 15 minutes following spinal administration of sulprostone. Minami et al., 57 Pain 217-223 (1994).
The compounds are formulated in approximately 0.01-5% DMSO and given in a volume of 1 ml/kg body weight for systemic dosing or 5 μl in saline for intrathecal dosing. Clonidine is tested at intrathecal doses ranging between 0.01 and 10.0 μg.
Amitriptylene is dissolved in 50% DMSO at the indicated doses and injected in a volume of 5 ul intrathecally into each mouse, in conjunction with either a 30 ug/kg IP injection of 5-methylurapadil or with a similar injection of saline.
Experimental procedure is the same as in Example 1, except both clonidine (various doses) and 5-methylurapidil (1 microgram intrathecal) are coadministered by intrathecal injection in a 50% DMSO vehicle and in a total volume of 5 microliters.

In series [3] the test system is Chung model of allodynic rats. The text has this:
A model for chronic pain (in particular peripheral neuropathy) involves the surgical ligation of the L5 (and optionally the L6) spinal nerves on one side in experimental animals. Rats recovering from the surgery gain weight and display a level of general activity similar to that of normal rats. However, these rats develop abnormalities of the foot, wherein the hindpaw is moderately everted and the toes are held together. More importantly, the hindpaw on the side affected by the surgery appears to become sensitive to pain from low-threshold mechanical stimuli, such as that producing a faint sensation of touch in a human, within about 1 week following surgery. This sensitivity to normally non-painful touch is called “tactile allodynia” and lasts for at least two months. The response includes lifting the affected hindpaw to escape from the stimulus, licking the paw and holding it in the air for many seconds. None of these responses is normally seen in the control group.
Rats are anesthetized before surgery. The surgical site is shaved and prepared either with betadine or novacaine. Incision is made from the thoracic vertebra X111 down toward the sacrum. Muscle tissue is separated from the spinal vertebra (left side) at the L4-S2 levels. The L6 vertebra is located and the transverse process is carefully removed with a small rongeur to expose the L4-L6 spinal nerves. The L5 and L6 spinal nerves are isolated and tightly ligated with 6-0 silk thread. The same procedure is done on the right side as a control, except no ligation of the spinal nerves is performed.
A complete hemostasis is confirmed, then the wounds are sutured. A small amount of antibiotic ointment is applied to the incised area, and the rat is transferred to the recovery plastic cage under a regulated heat-temperature lamp. […]
In the Chung rat model, tactile allodynia is measured prior to and 30 minutes after drug administration using von Frey hairs that are a series of fine hairs with incremental differences in stiffness. […]

The test system of a further series is male Sprague-Dawley rats. The following applies: graded 30 minutes after administration. The procedure: (§1) To test sedation, six male Sprague-Dawley rats are given various doses of a clonidine intrathecal injection. Sedation is graded 30 minutes following administration of the drug by monitoring locomotor skills as follows. Rats are placed in a dark covered chamber and a digicom analyzer (Omnitech Electronic) quantitates their exploratory behavior for a five-minute period. The machine records each time the rat interrupts an array of 32 photoelectric beams in the X and Y orientation, and quantifies the difference in behavior as compared to control animals given saline instead of clonidine.

Another series has as its system sedation. Put plainly: Clonidine sedative activity dose response with or without 5-methylurapadil (FIG. 2). The conditions noted are these: co-administration of 5-methyl urapidil 30 μg/kg intraperitoneal vs clonidine alone. The procedure:
as §1

[4] abbreviates: 35 microliters 0.003% prazosin instilled, FIG. 4A.
[5] abbreviates: 0.1% brimonidine and 0.003% prazosin, FIG. 4D.

The values that follow come from patent US20050059744A1, “Methods and compositions for the treatment of pain and other alpha 2 adrenergic-mediated conditions” (Allergan, Inc., priority 2003, published 2005).

Read-outs that look alike come from different tables or passages of the source.

Take `COc1cc2nc(N3CCN(C(=O)c4ccco4)CC3)nc(N)c2cc1OC` [prazosin]: in series [1] (setting [4]), the “intraocular pressure compared to the untreated eye” value is “small initial drop” and the “return to baseline pressure” value turned out to be 2 h.
As for `Brc1c(NC2=NCCN2)ccc2nccnc12` [brimonidine], the “lowering of intraocular pressure” value in series [1] (0.1% brimonidine alone, after the first 30 minutes, FIG. 4B) is listed as approximately 30%. Moreover, in series [1] (0.1% brimonidine alone, within the first 30 minutes, FIG. 4B), the “initial change in intraocular pressure” value is “pronounced increase”. In series [1] (setting [5]), the “initial change in intraocular pressure” value is on record as “only a very small increase” and the “peak IOP lowering” value is recorded as “approximately 40%”. In series [1] (co-installation of 0.1% brimonidine and 0.001% prazosin, FIG. 4C), the “difference in intraocular pressure response vs brimonidine alone” value is given as “Little difference”.
As for `CN(C)CCC=C1c2ccccc2CCc2ccccc21` [Amitriptylene, amitriptylene], the “reduction in the dosage necessary to achieve maximal analgesia” value in series [2] (amitriptylene intrathecal with 30 ug/kg IP 5-methylurapadil vs with saline) was “approximately three”.
As for `Clc1cccc(Cl)c1N=C1NCCN1` [clonidine], the analgesia result in series [3] (intrathecal dose of 0.1 μg, allodynic rats) is on record as “no analgesia”; in series [3] (intrathecal dose of 1.0 μg, allodynic rats) it was “maximal analgesia”; in series [3] (rats, dose-dependence statement), “analgesic”; in series [2] (clonidine 0.1 microgram intrathecal in the absence of prazosin), “not analgesic”; in series [2] (mice, dose-dependence statement), “analgesic”. Further, the sedation result is reported as “mildly sedating” with male Sprague-Dawley rats (intrathecal dose of 3.0 μg) and “maximal sedation” in the series with male Sprague-Dawley rats (intrathecal dose of 10 μg). Also, the “shift of the effective analgesic dose lower vs clonidine alone” value in series [2] (5-methyl urapidil 30 μg/kg intraperitoneal 5 minutes before clonidine) is 10 fold. In addition, the “analgesic results compared with intraperitoneal injection of the alpha 1 antagonist” value in series [2] (clonidine (various doses) and 5-methylurapidil 1 microgram coadministered intrathecally) is reported as “substantially similar”. In addition, the “decrease in the EC50 for clonidine vs i.t. clonidine alone” value in series [2] (coadministration of prazosin 100 ng/kg intraperitoneal) was “four”. Further, in the series with sedation, the sedating dose entry is “unchanged”.
